Assay results published in ChEMBL document CHEMBL1144471, “Structure-activity relationships of 2,N(6),5'-substituted adenosine derivatives with potent activity at the A2B adenosine receptor” (J Med Chem, 2007).

Tests used:
[1] = target: T1, Adenosine receptor A1 (Homo sapiens, UniProt P30542); test: Displacement of […] from human adenosine A1 receptor expressed in CHO cells; format: cell-based
T1 sequence (P30542 whole entry): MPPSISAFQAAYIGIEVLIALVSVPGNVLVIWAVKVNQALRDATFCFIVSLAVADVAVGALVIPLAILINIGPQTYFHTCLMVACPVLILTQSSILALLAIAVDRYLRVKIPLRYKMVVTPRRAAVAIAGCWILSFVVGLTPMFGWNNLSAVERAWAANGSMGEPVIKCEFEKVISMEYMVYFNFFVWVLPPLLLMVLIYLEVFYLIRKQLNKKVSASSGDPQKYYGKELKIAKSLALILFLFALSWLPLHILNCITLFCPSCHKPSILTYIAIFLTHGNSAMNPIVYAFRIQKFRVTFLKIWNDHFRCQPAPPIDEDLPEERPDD

[2] = target: T2, Adenosine receptor A3 (Homo sapiens, UniProt P0DMS8); test: Displacement of [125I]I-AB-MECA from human adenosine A3 receptor expressed in CHO cells; format: cell-based
T2 sequence (P0DMS8 whole entry): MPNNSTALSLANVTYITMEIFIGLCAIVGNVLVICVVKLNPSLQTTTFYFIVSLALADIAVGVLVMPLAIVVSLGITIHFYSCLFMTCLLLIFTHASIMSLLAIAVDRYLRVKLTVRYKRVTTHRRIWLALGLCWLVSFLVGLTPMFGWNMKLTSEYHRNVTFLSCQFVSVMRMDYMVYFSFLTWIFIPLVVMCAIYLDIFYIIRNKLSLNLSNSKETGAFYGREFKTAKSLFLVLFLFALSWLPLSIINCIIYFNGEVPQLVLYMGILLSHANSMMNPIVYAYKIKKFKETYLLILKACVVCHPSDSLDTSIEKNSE

[3] = target: T3, Adenosine receptor A2b (Homo sapiens) (UniProt P29275); test: Agonist activity at human adenosine A2B receptor expressed in CHO cells assessed as stimulation of cAMP production at 10 uM; format: functional, cell-based
T3 sequence (whole entry): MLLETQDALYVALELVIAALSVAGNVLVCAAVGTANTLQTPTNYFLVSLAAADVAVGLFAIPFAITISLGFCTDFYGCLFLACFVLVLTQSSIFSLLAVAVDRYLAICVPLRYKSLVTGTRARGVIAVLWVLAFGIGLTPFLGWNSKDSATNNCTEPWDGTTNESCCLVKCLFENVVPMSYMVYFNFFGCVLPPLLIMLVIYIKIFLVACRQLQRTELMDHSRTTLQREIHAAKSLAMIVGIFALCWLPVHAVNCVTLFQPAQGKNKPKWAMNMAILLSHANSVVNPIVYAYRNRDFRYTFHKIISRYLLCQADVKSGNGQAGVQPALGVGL

[4] = target: T4, Adenosine receptor A3 (Homo sapiens) (UniProt P0DMS8); test: Maximum efficacy at human recombinant adenosine A3 receptor expressed in CHO cells assessed as inhibition of cAMP production at 10 uM relative to NECA; format: functional, cell-based
T4 sequence (whole entry): T2 sequence (P0DMS8 whole entry)

[5] = target: Adenosine receptor A2a (Homo sapiens, UniProt P29274); test: biochemical
Description: Displacement of [3H]CGS-21680 from human adenosine A2A receptor expressed in CHO cells

[6] = target: T5, Adenosine receptor A2b (Homo sapiens, UniProt P29275); test: Agonist activity at human adenosine A2B receptor expressed in CHO cells assessed as stimulation of cAMP production
T5 sequence (P29275 whole entry): T3 sequence (whole entry)

Sequence of Adenosine receptor A2a (P29274 whole entry): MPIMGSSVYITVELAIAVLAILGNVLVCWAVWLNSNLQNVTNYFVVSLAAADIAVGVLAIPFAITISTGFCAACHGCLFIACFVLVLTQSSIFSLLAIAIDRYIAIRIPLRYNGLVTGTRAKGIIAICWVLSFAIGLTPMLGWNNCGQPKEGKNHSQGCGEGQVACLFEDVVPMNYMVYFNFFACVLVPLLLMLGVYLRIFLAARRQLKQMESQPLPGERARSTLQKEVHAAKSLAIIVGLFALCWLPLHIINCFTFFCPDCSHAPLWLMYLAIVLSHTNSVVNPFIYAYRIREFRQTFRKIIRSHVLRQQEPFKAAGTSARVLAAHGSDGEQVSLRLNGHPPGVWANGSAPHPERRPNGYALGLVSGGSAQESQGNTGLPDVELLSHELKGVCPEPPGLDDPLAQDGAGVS

SMILES	Ki [1]	Ki [2]	Activity [3]	Efficacy [4]	Ki [5]	EC50 [6]
Nc1nc(OCCCc2ccccc2)nc2c1ncn2[C@@H]1O[C@H](CO)[C@@H](O)[C@H]1O	960 nM	66 nM	29%	42%	500 nM	–
Nc1nc(OCCc2ccc3ccccc3c2)nc2c1ncn2[C@@H]1O[C@H](CO)[C@@H](O)[C@H]1O	141 nM	130 nM	–	45%	16.1 nM	1440 nM
Nc1nc(OCCc2c[nH]c3ccc(Cl)cc23)nc2c1ncn2[C@@H]1O[C@H](CO)[C@@H](O)[C@H]1O	130 nM	296 nM	–	-4%	390 nM	2180 nM
Nc1nc(OCCc2ccsc2)nc2c1ncn2[C@@H]1O[C@H](CO)[C@@H](O)[C@H]1O	280 nM	101 nM	9%	62%	13.3 nM	–
Nc1nc(OCCc2cc3ccccc3[nH]2)nc2c1ncn2[C@@H]1O[C@H](CO)[C@@H](O)[C@H]1O	197 nM	513 nM	49%	37%	373 nM	–
CCNC(=O)[C@H]1O[C@@H](n2cnc3c(NC(=N)N)ncnc32)[C@H](O)[C@@H]1O	–	–	–	100%	–	–
Nc1nc(OCCc2c[nH]c3ccc(I)cc23)nc2c1ncn2[C@@H]1O[C@H](CO)[C@@H](O)[C@H]1O	350 nM	110 nM	–	-5%	900 nM	1870 nM
Nc1nc(OCCCCc2ccccc2)nc2c1ncn2[C@@H]1O[C@H](CO)[C@@H](O)[C@H]1O	2060 nM	352 nM	3%	37%	519 nM	–
CCOc1nc(N)c2ncn([C@@H]3O[C@H](CO)[C@@H](O)[C@H]3O)c2n1	2640 nM	568 nM	-1%	99%	360 nM	–
C[C@@H](CCOc1nc(N)c2ncn([C@@H]3O[C@H](CO)[C@@H](O)[C@H]3O)c2n1)c1ccccc1	1560 nM	312 nM	13%	18%	413 nM	–

The remaining lines, values ahead:

Ki [1]	Ki [2]	Activity [3]	Efficacy [4]	Ki [5]	EC50 [6]	SMILES
331 nM	77.8 nM	12%	45%	58.1 nM	–	Nc1nc(OCCc2ccccc2F)nc2c1ncn2[C@@H]1O[C@H](CO)[C@@H](O)[C@H]1O
218 nM	104 nM	–	75%	95 nM	2580 nM	Nc1nc(OCCc2cc[nH]c2)nc2c1ncn2[C@@H]1O[C@H](CO)[C@@H](O)[C@H]1O
73.6 nM	90 nM	40%	58%	277 nM	–	N=C(N)Nc1nc(OCCc2c[nH]c3ccccc23)nc2c1ncn2[C@@H]1O[C@H](CO)[C@@H](O)[C@H]1O
221 nM	54.2 nM	–	71%	9.3 nM	3490 nM	Nc1nc(OCCc2ccccc2)nc2c1ncn2[C@@H]1O[C@H](CO)[C@@H](O)[C@H]1O
210 nM	142 nM	43%	-8%	252 nM	–	Nc1nc(OCCc2c[nH]c3c(Br)cccc23)nc2c1ncn2[C@@H]1O[C@H](CO)[C@@H](O)[C@H]1O
443 nM	260 nM	16%	-5%	39.7 nM	–	Nc1nc(OCCc2c[nH]c3cccc(Br)c23)nc2c1ncn2[C@@H]1O[C@H](CO)[C@@H](O)[C@H]1O
–	–	–	2%	29.3 nM	216 nM	Nc1nc(OCCc2c[nH]c3cc(Cl)ccc23)nc2c1ncn2[C@@H]1O[C@H](CO)[C@@H](O)[C@H]1O
467 nM	112 nM	11%	74%	56.8 nM	–	Nc1nc(OCCc2ccc(F)cc2)nc2c1ncn2[C@@H]1O[C@H](CO)[C@@H](O)[C@H]1O
312 nM	119 nM	64%	50%	69.3 nM	–	Nc1nc(OCCc2cccc(F)c2)nc2c1ncn2[C@@H]1O[C@H](CO)[C@@H](O)[C@H]1O
